Data from US6586453B2, “Substituted thiazoles and the use thereof as inhibitors of plasminogen activator inhibitor-1” (3-Dimensional Pharmaceuticals, Inc., priority 2000, dated 2003).

Molecular target: PAI-1 (Homo sapiens, UniProt P05121)
Experiment: PAI-1 assay (direct chromogenic assay, inhibitory activity of PAI-1 against uPA)
Format: biochemical
Conditions: substrate N-CBZ-VAL-GLY-ARG p-nitroanilide, 10 minute incubation at 37° C., read-out: PAI-1 inhibitory activity in vitro, IC50
Method: The inhibitory activity of PAI-1 against uPA was measured by a direct chromogenic assay using the substrate N-CBZ-VAL-GLY-ARG p-nitroanilide. The tested compound was added to PAI-1 which had been diluted in activity assay buffer (0.05M Hepes, pH 7.5, 0.15M NaCl, containing 0.05% N-octyl-D-glucopyranoside and 250 μg/ml bovine serum albumin). After a 10 minute incubation at 37° C., uPA was added (0.04 units/assay), followed immediately by the addition of substrate. After reequilibration at 37° C., residual uPA activity was quantified by measuring the change in absorbance at 405 nm over 12 minutes. The concentration of active PAI-1 in the assays was the amount required to inhibit 80-85% of uPA as compared to samples containing uPA alone.
Compounds No. 1 to 37 were tested in the PAI-1 assay as described above.

PAI-1, sequence (P05121 24-402): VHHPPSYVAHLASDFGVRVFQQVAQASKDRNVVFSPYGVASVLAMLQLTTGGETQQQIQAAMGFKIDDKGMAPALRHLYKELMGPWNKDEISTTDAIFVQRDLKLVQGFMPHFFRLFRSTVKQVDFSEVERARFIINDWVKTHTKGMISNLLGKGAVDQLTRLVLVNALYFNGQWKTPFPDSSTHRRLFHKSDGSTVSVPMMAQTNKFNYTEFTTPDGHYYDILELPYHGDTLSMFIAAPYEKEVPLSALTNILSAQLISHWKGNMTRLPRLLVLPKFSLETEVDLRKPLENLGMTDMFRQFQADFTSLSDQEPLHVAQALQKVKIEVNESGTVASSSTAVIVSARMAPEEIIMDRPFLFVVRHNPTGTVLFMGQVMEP

Compound | IC50 [nM]
CCc1cc2c(cc1-c1csc(Nc3ccc(C(=O)O)cc3)n1)C(C)(C)CCC2(C)C [Compound 2, 4-{[4-(3-ethyl-5,5,8,8-tetramethyl-2-5,6,7,8-tetrahydronaphthyl)-1,3-thiazol-2-yl]amino}benzoic acid] | 1800
CCc1cc2c(cc1-c1csc(Nc3cccc(C(=O)O)c3)n1)C(C)(C)CCC2(C)C [Compound 3] | 1100
N#Cc1ccc(Nc2nc(-c3ccc(-c4ccccc4)cc3)cs2)cc1 [Compound 11, 4-{[4-(4-phenylphenyl)-1,3-thiazol-2-yl]amino}benzenecarbonitrile] | 1600
